Assay results published in patent publication US5928896A, “Polypeptides that include conformation-constraining groups which flank a protein--protein interaction site” (Virginia Commonwealth University, priority 1997, dated 1999).
Where a SMILES comes first, the peptide text is derived from it.

Key:
[1] = tested on: receptors of sweet tasting papillae; details: comparison; cited from earlier work
[2] = Preliminary studies of hypotensive peptide versus diltiazem (diastolic pressure, arrhythmia); type: in vivo, rat
Protocol: Dose: 60 to 120 μg per rat (5 to 10 μM).

| Compound | Sweetness relative to sugar [1] | Effect on diastolic pressure [2] |
| --- | --- | --- |
| COC(=O)[C@H](Cc1ccccc1)NC(=O)[C@@H](N)CC(=O)O [aspartame] (H-Asp-Phe-OMe) | 160 times sweeter than sugar | – |
| COc1ccc([C@@H]2Sc3ccccc3N(CCN(C)C)C(=O)[C@@H]2OC(C)=O)cc1 [diltiazem] | – | small increase in the diastolic pressure |
